Assay results from article PMC7661967, “Magnetic Resonance Molecular Imaging of Extradomain B Fibronectin Improves Imaging of Pancreatic Cancer Tumor Xenografts” (Frontiers in Oncology, 2020).
Where “and” joins values, the source holds several entries; their conditions need not be identical. Equal entries are not always repeated. Entries after “also recorded” stand apart in the source; their conditions may differ. No end group written: not given here.

Tests used:
[1] = T1 and T2 relaxivity measurement at 3T; type: physicochemical
Experimental: The T1 and T2 values of MT218 and Gd(HP-DO3A) solutions were determined using a 3T MRS 3000 scanner (MR Solutions, Guildford, UK). Solutions of MT218 were prepared at concentrations of 0, 0.25, 0.5, 1, and 2 mM in DPBS buffer (Gibco, Gaithersburg, MD). T1 values were measured using an inversion recovery-fast low angle shot (IR-FLASH) sequence (τ = 10 ms, TE = 4 ms, FA = 8°, echoes/frames = 128, FOV = 40 mm × 40 mm, slice thickness = 2 mm, number of averages = 1, time delay = 4,000 ms, sample period = 200, matrix = 256 × 128). T2 values were obtained using a multi-echo multi-slice (MEMS) sequence (TE = 15 ms, […], echoes = 10, FOV: 40 mm × 40 mm, slice thickness = 1 mm, number of averages = 1, matrix = 256 × 192). The r1 and r2 relaxivities were calculated from the slopes of 1/T1 and 1/T2 vs. Gd concentration plots, respectively.

[2] = tested on: Capan-1 flank tumor xenografts; assay: MRMI of Capan-1 flank tumor xenografts (7T); type: in vivo, human cells in female nu/nu mice
Experimental: (§1) For flank xenograft models, 4 × 10^6 Capan-1 cells suspended in 100 μL of a 6 mg/mL Matrigel (Corning, Corning, NY) solution was injected subcutaneously into the flank of 8-week-old female nu/nu mice. The tumor bearing mice were imaged after tumor volumes exceeded 300 mm^3. For orthotopic intrapancreatic models, the pancreas of 4-week-old female nu/nu mice were surgically exposed via a ~10 mm incision in the left ventral abdomen and the application of gentle pressure to express the spleen and associated pancreatic tissue. 1 × 10^6 BxPC3-GFP-Luc or PANC-1-GFP-Luc cells suspended in 100 μL of a Matrigel solution (6 mg/mL) was injected into the pancreatic tissue using an insulin syringe with a 31G needle. Any leakage of cell suspension was lavaged with DPBS twice to prevent intraabdominal seeding PaCa cells. The peritoneal fascia was closed with absorbable stitches, and the dermis closed with stainless steel wound clips. Prior to imaging, growth of tumor was verified by bioluminescence imaging with intraperitoneal injection of d-luciferin on IVIS Spectrum system (Perkin Elmer, Waltham, MA).
(§2) Flank tumor-bearing mice were anesthetized and a tail vein catheter inserted. MR image acquisition was performed on a 7T Biospin (Bruker, Billerica, MA) preclinical small animal scanner with a volume radiofrequency coil. Axial images were obtained using a multi-spin multi-echo (MSME) MRI sequence (500 ms TR, 8.1 ms TE, 90° FA, 4.50 cm × 4.50 cm FOV, 1.50 mm slice thickness, 16 slices, 2 averages, 200 × 200 matrix, 0.0225 × 0.0225 cm/pixel resolution). Contrast agents were injected at a dose of 0.1 mmol/kg (100 μL) via the tail vein catheter, followed by a saline flush. Images of the tumors were acquired before contrast and at various time points after contrast administration. Gd(HP-DO3A) was used as a control.
(§3) Image files were exported and analyzed in Horus software. ROIs were drawn in the tumor, liver, kidney, and muscle. Muscle ROIs were taken from the muscle, with other structures (liver, kidney, tumor) identified after comparison with published images and comparison with anatomical landmarks or bioluminescent imaging. Pancreatic lesions were localized using the liver, kidney, and spleen as anatomical landmarks. […] Size of ROIs drawn for image analysis are summarized in Supplementary Table 1. The contrast-to-noise ratio of the tumor (CNR) was calculated using the following equation, where σnoise is the standard deviation of intensities from an ROI drawn outside of the mouse body:
(§4) CNR=Mean IntensityTumor-Mean IntensityMuscle/σnoise.
(§5) Image subtraction was performed on images adjusted to the same window and level in FIJI open-source software.
(§6) Image contrast was reported as fold enhancement of contrast to noise ratio of post-contrast images over pre-contrast images using Fold Enhancement = CNRpost/CNRpre. Statistical analysis of CNR was performed in Minitab Express (Minitab Inc., State College, PA). One-way ANOVA with Fisher Individual Tests for Differences of Means post-hoc testing was performed to determine statistical significance between >2 means (p < 0.05). Student's T test was used to determine statistical significance between 2 means (p < 0.05).

[3] = tested on: BxPC3-GFP-Luc intrapancreatic tumor xenografts; assay: MRMI of BxPC3-GFP-Luc intrapancreatic tumor xenografts (3T); type: in vivo, human cells in female nu/nu mice
Experimental: as §1
(§7) Mice bearing intrapancreatic tumors were anesthetized and a tail vein catheter was inserted. Image acquisition was performed on a MR Solutions 3T MRS 3000 scanner with a mouse radiofrequency coil. Axial images were obtained using a Fast Spin Echo (FSE) MRI sequence (305 ms TR, 11 ms TE, 90° FA, 4 cm × 4 cm FOV, 1 mm slice thickness, 10 slices, echo train length = 4, echo spacing = 11 ms, 4 averages, 256 × 256 matrix, 0.0156 × […] cm/pixel resolution) with respiratory gating. Images were acquired before contrast and at different time points after contrast injection at a dose of 0.1 mmol/kg (100 μL). For competitive binding experiments, a 5:1 molar ratio of free ZD2 peptide to MT218 was injected in mice bearing intrapancreatic BxPC3 tumor xenografts (n = 3) at a dose of 0.1 mmol MT218/kg (100 μL). Images obtained on the MR Solutions 3T scanner were normalized using the Surscalereader.exe (MR Solutions, Guildford, UK) program supplied.
as §3, §4, §5, §6

[4] = Liver CNR in contrast-enhanced MRI; type: in vivo, nu/nu mice; conditions: for liver CNR, MT218 vs Gd(HP-DO3A): 0.1 mmol/kg, p > 0.05
Experimental: as §2, §7
Image files were exported and analyzed in Horus software. ROIs were drawn in the tumor, liver, kidney, and muscle. […] The contrast-to-noise ratio of the tumor (CNR) was calculated using the following equation, where σnoise is the standard deviation of intensities from an ROI drawn outside of the mouse body:
The contrast to noise ratio of the liver (CNR) was calculated using the following equation: […]

[5] = Kidney CNR in contrast-enhanced MRI; type: in vivo, nu/nu mice; conditions: all tested mice, p > 0.05; BxPC3-GFP-Luc (n = 3) and PANC-1-GFP-Luc (n = 6) models
Experimental: as §2
Mice bearing intrapancreatic tumors were anesthetized and a tail vein catheter was inserted. Image acquisition was performed on a MR Solutions 3T MRS 3000 scanner with a mouse radiofrequency coil. […]
Image files were exported and analyzed in Horus software. […] The contrast-to-noise ratio of the tumor (CNR) was calculated using the following equation, where σnoise is the standard deviation of intensities from an ROI drawn outside of the mouse body: […]

[6] = 0.1 mmol/kg, 10 min post-injection, n = 3

ZD2-N3-Gd(HP-DO3A) (TVRTSAD; also: conjugated via N3 to Gd(HP-DO3A) contrast agent, end not given here) [MT218, small molecular conjugate of ZD2 peptide to a macrocyclic clinical MRI contrast agent Gd(HP-DO3A)]
T1 relaxivity (r1) ([1]; 0-2 mM MT218 in DPBS buffer, IR-FLASH): 6.07 ± 1.13 s⁻¹ mM⁻¹ | T2 relaxivity (r2) ([1]; 0-2 mM MT218 in DPBS buffer, MEMS): 8.20 ± 0.18 s⁻¹ mM⁻¹ | T1 relaxivity relative to Gd(HP-DO3A) ([1]; targeted agent vs corresponding clinical agent): ~2 fold | contrast enhancement in tumor periphery ([2]; 0.1 mmol/kg, 5 min post-injection, MT218 vs Gd(HP-DO3A)): Stronger contrast enhancement | maximum increase of tumor CNR (post/pre) ([2]; 0.1 mmol/kg, 15 min post-injection, MT218 n = 7): 4.8 fold | contrast enhancement in tumor core ([2]; 0.1 mmol/kg, after injection): gradually increased | enhancement in tumor periphery, subtraction images ([2]; 0.1 mmol/kg, early time points (5–15 min post-contrast)): strong initial enhancement | contrast enhancement throughout tumors, subtraction images ([2]; 0.1 mmol/kg, later time points (25–35 min) for MT218, all time points for Gd(HP-DO3A)): robust tumor contrast enhancement throughout the tumors | duration for which CNR increase maintained ([2]; 0.1 mmol/kg, post-injection): at least 35 min | MT218 CNR relative to Gd(HP-DO3A) control ([2]; Capan-1 flank, control Gd(HP-DO3A), p < 0.05): 273% | CNR relative to clinical agent ([2]; Capan-1 flank, vs Gd(HP-DO3A), p < 0.05): 2.7 times | tumor CNR increase (post/pre) ([3]; 0.1 mmol/kg, 10 min post-injection (maximum for MT218), n = 3): 5.3 fold | tumor contrast enhancement [3, 6]: strong contrast enhancement | tumor enhancement, subtraction images [3, 6]: strong enhancement and clear delineation | tumor contrast enhancement ([3]; 0.1 mmol/kg, 20 min post-injection, n = 3): decreased | tumor contrast enhancement ([3]; 0.1 mmol/kg, 30 min post-injection, n = 3): returned to background levels | MT218 CNR relative to control ([3]; BxPC3-GFP-Luc intrapancreatic, control Gd(HP-DO3A), p < 0.05): 212% | CNR relative to clinical agent ([3]; BxPC3-GFP-Luc intrapancreatic, vs Gd(HP-DO3A), p < 0.05): 2.1 times | CNR increase ([3]; MT218 0.1 mmol/kg co-injected with 5-fold excess free ZD2 peptide, n = 3): approximately 2.5 fold | contrast enhancement, competitive binding experiment ([3]; MT218 0.1 mmol/kg co-injected with 5-fold excess free ZD2 peptide, vs MT218 alone, n = 3): significant reduction of contrast enhancement | CNR with free ZD2 peptide compared with MT218 alone ([3]; MT218 co-injected with 5-fold free ZD2 peptide, n = 3, p < 0.05): significant decrease in tumor CNR; also recorded: significantly lower | size of smallest tumor detected / better visualized ([3]; smallest average size / area of tumor nodules, cf. BxPC3 + MT218 ROI in Supplementary Table 1): 6.1 mm^2 and 6.13 mm^2 | liver CNR, MT218 vs Gd(HP-DO3A) ([4]; BxPC3-GFP-Luc and PANC-1-GFP-Luc intrapancreatic models): No difference in CNR | liver CNR, MT218 vs Gd(HP-DO3A) ([4]; Capan-1 flank model): No significant difference in CNR | non-specific signal enhancement in hepatic tissue ([4]; MRMI with MT218): Minimal non-specific signal enhancement | kidney CNR, MT218 vs Gd(HP-DO3A) [5]: No significant (n.s, p>0.05) difference in kidney CNR
